From patent publication US20120016019A1, “PHARMACEUTICAL COMPOSITION FOR TREATING OR PREVENTING CANCER” (priority 2010, published 2012)
Values joined by “and” are separate entries in the source; they are usually repeats but may differ in a detail not shown here. Equal values may be shown once. Read-outs that look alike come from different tables or passages of the source.

How the values were obtained:
Assay type in all cases: cell-based
HME 50 HT = details: for cell counts: single count
Procedure: (§1) As a result, LC-50 curves were generated in the 1st week.
(§2) In the 2nd plate, 7 d of the 1st week (LC-50) is the same as 0 h of the 2nd week (recovery).
(§3) At 0 h of the 2nd week, medium was exchanged with untreated medium for the remainder of the experiment. The untreated controls were not measured in the 2nd week (recovery) due to overconfluence by the end of the 1st week. As a result, Recovery curves were generated in the 2nd week.
Human Mammary Epithelial (HME) cells were derived from adjacent normal tissue.

HeLa = assay: Cell counts, HeLa
Procedure: as §1, §2, §3

in vitro = details: human
Procedure: (§4) Cells were plated into 48-well Corning CellBind™ plates at densities of 20,000 cells for normal cells and 10,000˜20,000 cells for cancer cells. 24 to 48 h after plating, cells were treated with the composition according to the invention at concentrations of 4.5e-2M. The first time point treated with the composition of the invention is 0 h. At 3 days after the first treatment with the composition of the invention, medium was changed and the composition of the invention at the same concentrations were added to the cultured cells.
(§5) Cells were harvested using Trypsin-EDTA at the designated time points. When total cells for each well were counted with a Beckman-Coulter Z1 Particle Characterization Unit, the vertical axis represents 1/20 of cell number in the Figures attached to the specification, while when counted with a Beckman-Coulter Vi-Cell, the vertical axis represents cell number in the Figures. Two 48-well plates were used per cell line, and they were measured at 0 h, 12 h, 24 h, 48 h, 4 d and 7 d, respectively.
(§6) The viability was determined by using the trypan blue staining in the well of cell counting.

CCD-1074sk [1] = assay: in vitro; details: human, 220 nM
Procedure: as §4, §5, §6

CCD-1074sk [2] = details: for cell counts: single count
Procedure: as §1, §2
At 0 h of the 2nd week, medium was exchanged with untreated medium for the remainder of the experiment. […] As a result, Recovery curves were generated in the 2nd week.

TT = assay: XTT cell viability assay, TT; details: for The absorbance, group - Blank: mean minus blank; for The absorbance: single value
Procedure: Cancer cell lines HCC 1419, MCF-7, MDA-MB-468, SKBR3, PC3, HT1299, Saos-2, C-6, AsPc, MDA-MB-231, RKO, HeLa and TT, and normal cell lines HME 50 HT, BJ and CCD-1074sk were tested for changes in metabolism (XTT assay) and cell death (cell counts).
as §4
Cells were seeded in a 96-well tissue culture plate at a density of 10,000 cells for normal cells and 5,000 cells for cancer cells. After incubation period, the formazan dye formed was quantitated using an ELISA reader. The optimal wavelength used in experiments was 500 nm, and it was measured at 0 h, 12 h, 24 h, 48 h, 4 d and 7 d, respectively. The obtained values were generated using the software SoftMax Pro 4.8.
The cell viability was calculated according to the manufacturer's instructions as follows (the term “blank” means XTT in medium only):
Cellular cytotoxicity was calculated according to the manufacturer's instructions as follows:

[3] = HME 50 HT, 1st week (LC50), 0 h
[4] = HME 50 HT, 1st week (LC50), 12 h
[5] = HME 50 HT, 1st week (LC50), 24 h
[6] = HME 50 HT, 1st week (LC50), 48 h
[7] = HME 50 HT, 1st week (LC50), 4 d
[8] = HME 50 HT, 1st week (LC50), 7 d
[9] = viability (%) calculated from the cell counts

CC(=O)O[C@H]1C(=O)[C@@]2(C)[C@H]([C@H](OC(=O)c3ccccc3)[C@]3(O)C[C@H](OC(=O)[C@H](O)[C@@H](NC(=O)c4ccccc4)c4ccccc4)C(C)=C1C3(C)C)[C@]1(OC(C)=O)CO[C@@H]1C[C@@H]2O [Taxol]
number of normal cells (HME 50 HT): the number of cells did not increase, and was merely maintained for two weeks
cell counts, Mean value (HME 50 HT; [3]): 14667
cell counts (HME 50 HT; [3]): 12000 and 11000 and 21000
cell counts, Mean value (HME 50 HT; [4]): 16667
cell counts (HME 50 HT; [4]): 14000 and 23000 and 13000
cell counts, Mean value (HME 50 HT; [5]): 11333
cell counts (HME 50 HT; [5]): 14000 and 11000 and 9000
cell counts, Mean value (HME 50 HT; [6]): 15667
cell counts (HME 50 HT; [6]): 18000 and 11000
cell counts, Mean value (HME 50 HT; [7]): 9000
cell counts (HME 50 HT; [7]): 9000
cell counts, Mean value (HME 50 HT; [8]): 16667
cell counts (HME 50 HT; [8]): 17000 and 19000 and 14000
cell counts, Mean value (HME 50 HT; HME, 2nd week (recovery), 0 h): 16333
cell counts (HME 50 HT; HME, 2nd week (recovery), 0 h): 19000 and 17000 and 13000
cell counts, Mean value (HME 50 HT; HME, 2nd week (recovery), 12 h): 13667
cell counts (HME 50 HT; HME, 2nd week (recovery), 12 h): 13000 and 15000
cell counts, Mean value (HME 50 HT; HME, 2nd week (recovery), 24 h): 12667
cell counts (HME 50 HT; HME, 2nd week (recovery), 24 h): 12000 and 15000 and 11000
cell counts, Mean value (HME 50 HT; HME, 2nd week (recovery), 48 h): 17000
cell counts (HME 50 HT; HME, 2nd week (recovery), 48 h): 18000 and 16000 and 17000
cell counts, Mean value (HME 50 HT; HME, 2nd week (recovery), 4 d): 16333
cell counts (HME 50 HT; HME, 2nd week (recovery), 4 d): 18000 and 19000 and 12000
cell counts, Mean value (HME 50 HT; HME, 2nd week (recovery), 7 d): 16000
cell counts (HME 50 HT; HME, 2nd week (recovery), 7 d): 14000 and 19000 and 15000
cell counts (HeLa; 1st week (LC50), 0 h): 158000 and 136000 and 184000
cell counts, Mean value (HeLa; 1st week (LC50), 0 h): 159333
cell counts (HeLa; 1st week (LC50), 24 h): 158000 and 276000 and 219000
cell counts, Mean value (HeLa; 1st week (LC50), 24 h): 217667
cell counts (HeLa; 1st week (LC50), 48 h): 105000 and 70000 and 79000
cell counts, Mean value (HeLa; 1st week (LC50), 48 h): 84667
cell counts (HeLa; 1st week (LC50), 4 d): 26000 and 39000 and 31000
cell counts, Mean value (HeLa; 1st week (LC50), 4 d): 32000
cell counts (HeLa; 1st week (LC50), 7 d): 36000 and 34000 and 32000
cell counts, Mean value (HeLa; 1st week (LC50), 7 d): 34000
cell counts (HeLa; 2nd week (recovery), 0 h): 31000 and 34000 and 35000
cell counts, Mean value (HeLa; 2nd week (recovery), 0 h): 33333
cell counts, Mean value (HeLa; 2nd week (recovery), 24 h): 23333
cell counts (HeLa; 2nd week (recovery), 48 h): 12000 and 23500 and 22000
cell counts, Mean value (HeLa; 2nd week (recovery), 48 h): 19167
cell counts (HeLa; 2nd week (recovery), 4 d): 22000 and 18000 and 13000
cell counts, Mean value (HeLa; 2nd week (recovery), 4 d): 17667
cell counts (HeLa; 2nd week (recovery), 7 d): 18000
cell counts, Mean value (HeLa; 2nd week (recovery), 7 d): 18000
viability at 0 h, 2.2e-07 M (in vitro; [9]): 70%
viability at 24 h, 2.2e-07 M (in vitro; [9]): 71%
viability at 4 d, 2.2e-07 M (in vitro; [9]): 43%
viability at 0 h, 2.2e-07 M (in vitro; viability (%), Mean value): 73%
viability at 24 h, 2.2e-07 M (in vitro; viability (%), Mean value): 80%
viability at 4 d, 2.2e-07 M (in vitro; viability (%), Mean value): 38%
viability (%), Mean value (CCD-1074sk [1]; 0 h): 79%
viability (%) calculated from the cell counts (CCD-1074sk [1]; 48 h): 83%
viability (%) calculated from the cell counts (CCD-1074sk [1]; 4 d): 33%
cell counts, Mean value (CCD-1074sk [2]; 1st week (LC50), 0 h): 8000
cell counts (CCD-1074sk [2]; 1st week (LC50), 0 h): 9000 and 7000
cell counts, Mean value (CCD-1074sk [2]; 1st week (LC50), 24 h): 15500
cell counts (CCD-1074sk [2]; 1st week (LC50), 24 h): 15000 and 16000
cell counts, Mean value (CCD-1074sk [2]; 1st week (LC50), 48 h): 10500
cell counts (CCD-1074sk [2]; 1st week (LC50), 48 h): 10000 and 11000
cell counts, Mean value (CCD-1074sk [2]; 1st week (LC50), 4 d): 4500
cell counts (CCD-1074sk [2]; 1st week (LC50), 4 d): 6000 and 3000
cell counts, Mean value (CCD-1074sk [2]; 1st week (LC50), 7 d): 11500
cell counts (CCD-1074sk [2]; 1st week (LC50), 7 d): 11000 and 12000
cell counts, Mean value (CCD-1074sk [2]; 2nd week (recovery), 0 h): 10500
cell counts (CCD-1074sk [2]; 2nd week (recovery), 0 h): 10000 and 11000
cell counts, Mean value (CCD-1074sk [2]; 2nd week (recovery), 48 h): 8000
cell counts (CCD-1074sk [2]; 2nd week (recovery), 48 h): 10000 and 6000
cell counts, Mean value (CCD-1074sk [2]; 2nd week (recovery), 4 d): 5500
cell counts (CCD-1074sk [2]; 2nd week (recovery), 4 d): 4000 and 7000
cell counts (CCD-1074sk [2]; 2nd week (recovery), 7 d): 18000 and 9000
The cytotoxicity (TT; 1st week (LC50), 0 h): 0.6095
The viability (TT; 1st week (LC50), 0 h): 0.3905
The absorbance, group - Blank (TT; 1st week (LC50), 0 h): 0.1760
The absorbance, Mean value (TT; 1st week (LC50), 0 h): 0.4394
The absorbance (TT; 1st week (LC50), 0 h): 0.4452 and 0.4456
The cytotoxicity (TT; 1st week (LC50), 12 h): −0.2604
The viability (TT; 1st week (LC50), 12 h): 1.2604
The absorbance, group - Blank (TT; 1st week (LC50), 12 h): 1.5590
The absorbance, Mean value (TT; 1st week (LC50), 12 h): 1.8224
The absorbance (TT; 1st week (LC50), 12 h): 1.512 and 1.5452
The cytotoxicity (TT; 1st week (LC50), 24 h): −0.0831
The viability (TT; 1st week (LC50), 24 h): 1.0831
The absorbance, group - Blank (TT; 1st week (LC50), 24 h): 2.2745
The absorbance, Mean value (TT; 1st week (LC50), 24 h): 2.5379
The cytotoxicity (TT; 1st week (LC50), 48 h): 0.5671
The viability (TT; 1st week (LC50), 48 h): 0.4329
The absorbance, group - Blank (TT; 1st week (LC50), 48 h): 1.1834
The absorbance, Mean value (TT; 1st week (LC50), 48 h): 1.4468
The absorbance (TT; 1st week (LC50), 48 h): 1.6834 and 1.3166
The cytotoxicity (TT; 1st week (LC50), 4 d): −0.3186
The viability (TT; 1st week (LC50), 4 d): 1.3186
The absorbance, group - Blank (TT; 1st week (LC50), 4 d): 1.9816
The cytotoxicity (TT; 1st week (LC50), 7 d): 0.5080
The viability (TT; 1st week (LC50), 7 d): 0.4920
The absorbance, group - Blank (TT; 1st week (LC50), 7 d): 0.9498
The absorbance, Mean value (TT; 1st week (LC50), 7 d): 1.2132
The absorbance (TT; 1st week (LC50), 7 d): 1.2763
The cytotoxicity (TT; 2nd week (recovery), 0 h): −3.3443
The viability (TT; 2nd week (recovery), 0 h): 4.3443
The absorbance, group - Blank (TT; 2nd week (recovery), 0 h): 1.9578
The absorbance, Mean value (TT; 2nd week (recovery), 0 h): 2.2212
The cytotoxicity (TT; 2nd week (recovery), 12 h): −0.1062
The viability (TT; 2nd week (recovery), 12 h): 1.1062
The absorbance, group - Blank (TT; 2nd week (recovery), 12 h): 2.3230
The absorbance, Mean value (TT; 2nd week (recovery), 12 h): 2.5864
The cytotoxicity (TT; 2nd week (recovery), 24 h): 0.5481
The viability (TT; 2nd week (recovery), 24 h): 0.4519
The absorbance, group - Blank (TT; 2nd week (recovery), 24 h): 1.2354
The absorbance, Mean value (TT; 2nd week (recovery), 24 h): 1.4988
The cytotoxicity (TT; 2nd week (recovery), 48 h): 0.6857
The viability (TT; 2nd week (recovery), 48 h): 0.3143
The absorbance, group - Blank (TT; 2nd week (recovery), 48 h): 0.4723
The absorbance, Mean value (TT; 2nd week (recovery), 48 h): 0.7357
The cytotoxicity (TT; 2nd week (recovery), 4 d): 0.8411
The viability (TT; 2nd week (recovery), 4 d): 0.1589
The absorbance, group - Blank (TT; 2nd week (recovery), 4 d): 0.3067
The absorbance, Mean value (TT; 2nd week (recovery), 4 d): 0.5701
The absorbance (TT; 2nd week (recovery), 4 d): 0.4887 and 0.7079 and 0.5136
The cytotoxicity (TT; 2nd week (recovery), 7 d): −3.3443
The viability (TT; 2nd week (recovery), 7 d): 4.3443
The absorbance, group - Blank (TT; 2nd week (recovery), 7 d): 1.9578
The absorbance, Mean value (TT; 2nd week (recovery), 7 d): 0.2634
The absorbance (TT; 2nd week (recovery), 7 d): 0.2616 and 0.2542 and 0.2744
